Measurements published in patent publication US20230141823A1, “PREBIOTIC AND PROBIOTIC TREATMENT TO REDUCE ORAL DYSBIOSIS AND PROMOTE EUBIOSIS” (FUNDACIÓN PARA EL FOMENTO DE LA INVESTIGACIÓN SANITARIA Y …, priority 2019, published 2023).
Read-outs that look alike come from different tables or passages of the source.

How the values were obtained:
[1] = system: biofilms from subgingival plaque of patients with periodontitis
Experimental: In addition to the oral biofilms from healthy individuals provided in EXAMPLE 1, ex vivo experiments with a dysbiotic community (subgingival plaque samples from patients with periodontitis) were performed. Eleven patients diagnosed with periodontitis were enrolled into the study. Subgingival plaque was collected by inserting eight to ten sterile paper points inside the deepest periodontal pockets. The paper points were then transferred to a 2 mL tube containing reduced transport media (RTF) and stored in a cooling box at around 4° C. for max. 18 hours. For the biofilm growth, BHI containing vitamin K and hemin (as described in EXAMPLE 1) was used. Transport medium was removed by centrifugation (1 min, 12000 rpm), followed by resuspension into 1 mL BHI. The xCELLigence system described in EXAMPLE 1 was used. Patient samples were incubated under four different conditions; control, nitrate, control+probiotic and nitrate+probiotic. First, 100 µl of periodontal plaque in BHI was added to the wells. Then, for the nitrate condition, 5 µl of 250 mM nitrate in BHI was added to the wells to obtain a 5 mM nitrate concentration. For the control+probiotic and nitrate+probiotic conditions, 45 pi of R. aeria D1P7 culture of OD (600 nm)=0.417 was added to the wells, resulting in a final OD (600 nm) of 0.075 per well. BHI was added to reach a final volume of 250 pi. A medium control (without patient sample or probiotic) with nitrate (Cntr) was used to determine the initial amounts of nitrate and nitrite in the medium. After 7 hours of incubation, supernatant and biofilm was harvested for nitrate/nitrite measurements and 16S rRNA gene sequencing, respectively (both described in EXAMPLE 1).

[2] = in vivo; cited from earlier work
[3] = system: oral biofilms grown from unstimulated saliva
Experimental: (§1) BHI medium (Biolife) with an additional 0.05 mg/L haemin, 0.005 mg/L menadione and 0.2 mM vitamin K (all Sigma-Aldrich) was prepared of which 100 pi was added to each well for background impedance measurements. An additional 25 µl of a 65 mM nitrate in water or just water were added to each well of the nitrate or control condition, respectively. Then, 125 pi freshly collected saliva was added, leading to a final concentration of 6.5 mM nitrate in the nitrate condition. The E-Plate 96 was placed in the xCELLigence system inside an incubator at 37° C. Every 10 minutes, a Cell Index measurement was taken. […] For Oh measurements, 1:1 medium and saliva mixtures were used. Then, duplicates of supernatant and biofilm were taken after 5 h and 9 h of growth. The supernatant was sampled and stored at −20° C. until pH, nitrate, nitrite, ammonium and lactate measurements. After this, a PBS washing step was performed and duplicates of biofilms were resuspended together in 200 pi PBS for storage at −20° C. until DNA isolation for sequencing.

[4] = adult of 60 kg; cited from earlier work
[5] = system: oral biofilms grown from unstimulated saliva; remark: listed apart in the source
Experimental: as §1
(§2) For the nitrate, nitrite, ammonium, lactate and pH measurements, the RQflex® 10 Reflectoquant® (Merck Millipores), a reflectometer that measures the reflection of color changing test strips, was used.
In the case of nitrate, nitrite, ammonium and lactate measurements, the supernatant of the cultures was diluted 1:10 with water to minimize the interference of medium compounds. […] For pH measurements, undiluted supernatant was used. For all measurements except ammonium, 15 pi of (diluted) supernatant was added to two reactive patches on a strip, excess liquid was removed by tipping the side of the strip on a tissue, the corresponding incubation time was applied for each measurement, and the strip was put inside the reflectometer.
Nitrite was measured first. The diluted supernatants in which 0.5 mg/l or more nitrite was detected were treated with amidosulfuric acid to remove nitrite before nitrate measurements. For this, […] of diluted supernatant was mixed with 1.5 ml amidosulfuric acid solution (10%), and directly added to the strips.
For ammonium measurements, aliquots were made of […] diluted supernatant to which 10 m l of reagent 1 of the kit was added first and resuspended well. Then, […] of a freshly made mixture of one scoop of reagent 2 (both provided with the kit) dissolved in 1.25 ml water was added directly and resuspended well. This solution was then directly added to the strips and incubated. Five seconds before the measurements, excess liquid was removed. All measured concentrations were adjusted by dilution factors.

[6] = system: oral biofilm grown from saliva of donors D2 and D25; assay: Effect of isolates on in vitro biofilms: colonization by sequencing; assay type: cell-based, human; conditions: 5 h of growth
Experimental: Six isolates selected as best potential probiotics based on the results from previous experiments were studied in vitro to define the effect of these isolates when they are added to an oral biofilm. These isolates were tested by growing them with saliva of two different donors (D2 and D25 in our database) in a 96-wells plate. For each experiment, there were 4 conditions: control, nitrate (i.e., 6.5 mM nitrate), control+isolate, and nitrate+isolate. […] Then, 100 pL of saliva (or BHI for negative controls) was added and, for the nitrate conditions, 10 pL of nitrate solution 65 mM was added (or 10 pL of BHI for control conditions). Negative controls were added in each experiment: only BHI medium and BHI medium+nitrate. Before being added to the 96-well plate, the isolates were grown for 24 h. Then, 40 pL isolate in BHI solution with OD 1.5 was added (or 40 pL of just BHI in conditions without isolates) to each well. The final concentration of nitrate was 6.5 mM and starting OD of the isolate was 0.24. The 96-well plate was sealed to prevent oxygen presence, and incubated during 5 h 30 min at 37° C. After that, the supernatant was collected, the pellet resuspended in 30 pL of PBS and both stored at −20° C. until measurements were performed. The DNA was extracted and the biofilms were sequenced as described in EXAMPLE 1.

[7] = system: oral biofilms grown from unstimulated saliva; conditions: 6.5 mM nitrate
Experimental: as §1
For DNA extraction, the biofilms were resuspended in 100 pi PBS and disaggregated 30 s in a sonicator bath (model Raypa VCI-50) at low ultrasound intensity. After this, DNA was isolated by MagNA Pure LC 2.0 Instrument (Roche Diagnostics), using the MagNA Pure LC DNA Isolation Kit III for Bacteria and Fungi (Roche Diagnostics) following the manufacturer's instructions with an additional enzymatic lysis step: to a salivary pellet in 100 pi PBS, […] lysis buffer and […] of enzyme mix, containing 20 mg/ml lysozyme ([…]), 5 mg/l lysostaphin (Sigma-Aldrich) and 0.625 mg/ml mutanolysin (Sigma-Aldrich), were added and incubated for 60 min at 37° C. DNA was resuspended in […] elution buffer and frozen at −20° C. until further analysis. To determine the amount of DNA for sequencing, the Quant-iT™ PicoGreen® dsDNA Assay Kit (ThermoFisher) and a Qubit™ 3 Fluorometer (ThermoScientific) were used, according to manufacturer's instructions.
A pre-amplification step of the V1-V5 regions of the 16S rRNA gene was performed, following Dzidic et al 2019. An Illumina amplicon library was performed following the 16S rDNA gene Metagenomic Sequencing Library Preparation Illumina protocol (Part #15044223 Rev. A). The gene-specific primer sequences used in this protocol were 16S Amplicon F (SEQ ID NO: 8) and 16S Amplicon R (SEQ ID NO: 9), targeting the 16S rDNA gene V3 and V4 regions, resulting in a single amplicon of 460 bp. Overhang adapter sequences were used together for compatibility with Illumina index and sequencing adapters. After 16S rDNA gene amplification, the DNA was sequenced on a MiSeq Sequencer according to manufacturer's instructions (Illumina) using the 2×300 bp paired-ends protocol.
The sequences were analyzed according to Boix-Amoros et al., 2016. In short, the reads were quality-filtered and end-trimmed in 10 bp windows with Prinseq. The PCR chimeras were removed with UCHIME according to Edgar et al., 2011. Only filtered sequences >250 bp were used to be taxonomically assigned at the genus level with the classifier of the Ribosomal Database Project (Wang et al., 2007), using a confidence interval of 80%. Operational Taxonomic Unit (OTU) picking was performed using VSEARCH (Rognes, 2016) at a 97% of sequence identity. Each OTU was aligned centroid using BLAST at 97% of identity and 100% query coverage, and retrieved only those species that agreed with the previous classification of the centroid at genus level provided by RDP classifier.
Overall R programming language was used for statistical computing to perform downstream analyses. Genera with an abundance of <0.01% were removed from all groups.

unstimulated saliva = system: unstimulated saliva
Experimental: The unstimulated saliva of D25-D33 was used to test the effect of different concentrations of nitrate on a pH drop caused by 0.2% of glucose after 5 h of incubation. For each donor, 187 µl of saliva and 22 µl of glucose (2% diluted in water) was added per well of a standard 96-well plate. Then, 11 pL of water without or with different concentrations of nitrate was added, leading to final concentrations of 0 mM, 0.5 mM, 1 mM, 1.5 mM, 2.5 mM, 3.5 mM, 4.5 mM, 5.5 mM, 6.5 mM, 7.5 mM and 8.5 mM of nitrate. The plate was sealed with adhesive aluminum foil (VWR) and incubated during 5 h at 37° C. After incubation, the samples were stored at −20° C. until pH measurements.
as §2

[8] = Donor 2, Nitrate condition (6.5 mM)
[9] = Donor 25, Nitrate condition (6.5 mM)

O=[N+]([O-])O [Nitrate, nitrate]
mean growth curve of the periodontitis biofilms versus control condition ([1]; 11 patients, 7 h): lower
levels of periodontal pathogens such as Porphyromonas, Eikenella and Tannerella ([1]; 7 hours, versus control): reducing the levels
nitrate reduced after the 7 hours of growth ([1]; periodontal samples (n=11), anaerobic): around 20%
nitrate recycled by the salivary glands into saliva [2]: 25%
nitrate removed from the body by the kidneys into the urine [2]: Around 75%
real-time impedance measurements of biofilm growth compared to control biofilms ([3]; 6.5 mM nitrate (403 mg/L)): did not show significant changes
biofilm protein levels compared to control ([3]; 6.5 mM nitrate, 5 h and 9 h): did not differ significantly
Acceptable Daily Intake, ADI [4]: 222 mg
decrease of nitrate after 5 h ([5]; 6.5 mM nitrate added, 5 of 12 donors): 76-85%
nitrate left after 5 h ([5]; 6.5 mM nitrate added, 7 of 12 individuals): no nitrate detectable
average nitrite in supernatant ([5]; 6.5 mM nitrate condition, 5 h (1.64 mg/l at 0 h)): 64.68 mg/L
pH compared to control condition ([5]; 6.5 mM nitrate, 5 h and 9 h, p<0.005): significantly higher
share of the 6.5 mM added nitrate accounted for by ammonium (stoichiometric) ([5]; after 9 h): 73.1%
increase of average ammonium after 5 h ([5]; nitrate condition (control 1.72×)): 2.21 ×
increase of average lactate after 5 h ([5]; nitrate condition (control 4.74×)): 3.40 ×
ammonium higher than in the control condition ([5]; nitrate condition, after 9 h): 4.75 mM
R. aeria (%) in biofilm [6, 8]: 0.06%
R. mucilaginosa (%) in biofilm [6, 8]: 2.33%
R. aeria (%) in biofilm [6, 9]: 0.03%
R. mucilaginosa (%) in biofilm [6, 9]: 7.94%
increase of Neisseria compared to control condition ([7]; 5 h): 3.5 ×
Bacterial abundance Aggregatibacter (Average) ([7]; 5 h (n = 12)): 0.55%
Bacterial abundance Alloprevotella (Average) ([7]; 5 h (n = 12)): 0.21%
Bacterial abundance Fusobacterium (Average) ([7]; 5 h (n = 12)): 0.15%
Bacterial abundance Gemella (Average) ([7]; 5 h (n = 12)): 2.76%
Bacterial abundance Granulicatella (Average) ([7]; 5 h (n = 12)): 2.16%
Bacterial abundance Haemophilus (Average) ([7]; 5 h (n = 12)): 7.30%
Bacterial abundance Leptotrichia (Average) ([7]; 5 h (n = 12)): 0.14%
Bacterial abundance Neisseria (Average) ([7]; 5 h (n = 12)): 20.65%
Bacterial abundance Other (Average) ([7]; 5 h (n = 12)): 3.64%
Bacterial abundance Porphyromonas (Average) ([7]; 5 h (n = 12)): 0.56%
Bacterial abundance Prevotella (Average) ([7]; 5 h (n = 12)): 1.99%
Bacterial abundance Rothia (Average) ([7]; 5 h (n = 12)): 0.53%
Bacterial abundance Streptococcus (Average) ([7]; 5 h (n = 12)): 45.29%
Bacterial abundance Viellonella (Average) ([7]; 5 h (n = 12)): 10.84%
Bacterial abundance unclass. Neisseriaceae (Average) ([7]; 5 h (n = 12)): 0.95%
Bacterial abundance unclass. Pasteurellaceae (Average) ([7]; 5 h (n = 12)): 2.00%
Bacterial abundance unclass. Veillonellaceae (Average) ([7]; 5 h (n = 12)): 0.26%
Rothia higher than in control condition ([7]; 5 h and 9 h): 2.7 ×
increase of Neisseria compared to control condition ([7]; 9 h): 4.9 ×
Bacterial abundance Aggregatibacter (Average) ([7]; 9 h (n = 12)): 0.72%
Bacterial abundance Alloprevotella (Average) ([7]; 9 h (n = 12)): 0.37%
Bacterial abundance Fusobacterium (Average) ([7]; 9 h (n = 12)): 0.38%
Bacterial abundance Gemella (Average) ([7]; 9 h (n = 12)): 1.83%
Bacterial abundance Granulicatella (Average) ([7]; 9 h (n = 12)): 1.56%
Bacterial abundance Haemophilus (Average) ([7]; 9 h (n = 12)): 8.86%
Bacterial abundance Leptotrichia (Average) ([7]; 9 h (n = 12)): 0.16%
Bacterial abundance Neisseria (Average) ([7]; 9 h (n = 12)): 20.99%
Bacterial abundance Other (Average) ([7]; 9 h (n = 12)): 4.80%
Bacterial abundance Porphyromonas (Average) ([7]; 9 h (n = 12)): 1.51%
Bacterial abundance Prevotella (Average) ([7]; 9 h (n = 12)): 2.78%
Bacterial abundance Rothia (Average) ([7]; 9 h (n = 12)): 0.25%
Bacterial abundance Streptococcus (Average) ([7]; 9 h (n = 12)): 31.75%
Bacterial abundance Viellonella (Average) ([7]; 9 h (n = 12)): 20.40%
Bacterial abundance unclass. Neisseriaceae (Average) ([7]; 9 h (n = 12)): 1.07%
Bacterial abundance unclass. Pasteurellaceae (Average) ([7]; 9 h (n = 12)): 2.12%
Bacterial abundance unclass. Veillonellaceae (Average) ([7]; 9 h (n = 12)): 0.38%
change of Kingella ([7]; after 5 h, p<0.05): increased significantly
Porphyromonas, Fusobacterium, Leptotrichia, Alloprevotella, Dialister and Parvimonas versus control ([7]; p<0.05 at 5 h and/or 9 h): significantly lower
change of caries-associated Atopobium and Oribacterium ([7]; p<0.05 at 5 h or 5 h and 9 h): decreased significantly
salivary pH after 5 h compared to 0 mM nitrate (unstimulated saliva; 0.2% glucose, nitrate 0.5 mM to 8.5 mM): higher pH
nitrate concentrations for which no additional benefits were observed (unstimulated saliva; after 5 h): above 3.5 mM
nitrate concentrations that prevented salivary acidification due to glucose fermentation (unstimulated saliva; after 5 h): ≥ 0.5 mM
